Columns and labels:
[1] = test system: serum iPTH; experiment: Effect of decreasing iPTH in rat by single dose of intravenous administration; type: in vivo; settings: male SD (IGS) rat, 0.1 mg/kg, compared with cinacalcet
Description: (Method) A single dose was given to male SD (IGS) rat under pentobarbital anesthesia from a tail vein to examine the transition of serum iPTH and serum Ca concentration. Blood was taken before the administration and 5, 15, 30 and 60 minutes after the administration.
Compound No. 1 (the compound described in Example 6) was dissolved in physiological saline. Meanwhile, cinacalcet as a control substance was dissolved in PEG400: Saline=1:1 solution.

[2] = test system: NSAID-induced small intestine inflammation; experiment: Effect against NSAID-induced small intestine inflammation; type: in vivo, rat; settings: 30 minutes before loxoprofen 60 mg/kg oral, 24 hours
Description: (Method) To a non-fasting rat, Compound No. 1 or 2 (the compound described in Example 14) (10 mg/kg) or Compound No. 3 (the compound described in Example 48) (3, 10 or 30 mg/kg) was orally administered. After 30 minutes, loxoprofen (60 mg/kg) was orally administered and the rat was left for 24 hours. Thirty minutes before the autopsy, 1 ml of 1% (w/w) Evansblue dye was intravenously administered to the rat. The small intestine (from duodenum to ileum) of the animal euthanized under deep ether anesthesia was isolated and immersed in 2% formalin for 10 minutes to fix the small intestine from the serosa side. The small intestine was dissected from the opposite side of the mesentery to measure the injury area (mm^2) thereof under a 10× dissecting microscope. T-test or Dunnett's test was employed as the statistical test where p<0.05 was considered to indicate significant difference.

[3] = test system: large intestine loop; experiment: Water absorption action using rat colon loop technique; type: in vivo; settings: male SD (IGS) rat colon loop, PGE2 4 μg/ml/kg i.p., compound in Tyrode's solution injected into loop, 1 hour; FIGS. 5-8
Description: (Method) Appendix and large intestine were isolated from a male SD (IGS) rat under pentobarbital anesthesia, which were ligated 5 cm below the appendix to prepare a large intestine loop. Immediately after loop preparation, PGE2 (4 μg/ml/kg, SIGMA) was intraperitoneally administered. Thirty minutes later, 2 ml of Tyrode's solution (NaCl 136.9 mM, KCl 2.7 mM, CaCl2.2H2O 1.8 mM, MgCl2.6H2O 1.04 mM, NaH2PO4.2H2O 0.04 mM, NaH2PO4.2H2O 0.04 mM, Glucose 5.55 mM, NaHCO3 11.9 mM) was injected into the prepared loop. An hour later, weight of the loop, weight of the loop after removing the fluid therefrom and the loop area were measured to calculate the weight of liquid remaining in the loop per unit area.
The above-described Compounds Nos. 1-3 and Compound No. 4 (the compound described in Example 47) were used as the test compounds while the agents were dissolved in Tyrode's solution. Remaining liquid measure per unit area (g/cm^2)=(weight of loop−weight of loop after removing fluid therefrom)/loop area.
Water absorption was assessed by calculating water regulating effect (%) according to the following formula. Water regulating effect (%)=100−(remaining liquid measure per unit area obtained with agent−average remaining liquid measure per base unit area)/(remaining liquid measure per unit area obtained with vehicle−average remaining liquid measure per base unit area)×100.

[4] = biological target: human CaSR (Homo sapiens (Human), UniProt P41180); experiment: Assessment of CaSR agonistic activity (FLIPR Ca2+ fluorescence); type: cell-based; settings: 293E cells transfected with hCaSR/pcDNA3.1, Calcium 4 Assay Kit, 1.5 mM CaCl2 assay buffer
Description: CaSR gene was prepared according to the method described in Example 1 of WO07/55393. The resulting recombinant plasmid was used to generate human CaSR-expressing plasmid hCaSR/pcDNA3.1.
293E cells (EBNA1-expressing IIEK293 cells, ATCC No. CRL-10852) were cultured in DMEM ([…] Glucose-containing Dulbecco's modified Eagle medium, Nacalai Tesque) containing 10% bovine fetal serum in the presence of 250 μg/ml of G418. The cells were seeded on a 10 cm-diameter petri dish at 1.8×10^6 cells/15 ml, and left to stand in a CO2 incubator (5% CO2, 37° C.) for 24 hours. Thereafter, human CaSR expression plasmid hCaSR/pcDNA3.1 was transfected with transfection reagent Mirus Trans IT 293 (Takara Bio). Following static culture in a CO2 incubator for 24 hours, the cells were harvested with 10% bovine fetal serum-containing DMEM and seeded on a poly-D-lysine coat 384 well plate (Falcon) at 15,000 cells/well. Following static culture in a CO2 incubator for 24 hours, the medium was removed and the resultant was added with 50 μl/well of Ca^2+ fluorescent indicator Calcium 4 Assay Kit (Molecular Devices) dissolved in an assay buffer (146 mM NaCl, 5 mM KCl, 1 mM MgSO4, 1 mg/ml Glucose, 20 mM HEPES (PH 7.2), 1.5 mM CaCl2), and left to stand at 37° C. for an hour and then at room temperature for 30 minutes to allow intake of the indicator. The above-mentioned 384-well plate was transferred to FLIPR (Molecular Devices) and added with 12.5 μl/well of a compound dissolved in a 0.1% BSA-containing assay buffer to measure 3-minute change in the fluorescence intensity.
The difference between maximum and minimum fluorescence intensities before and after compound addition (RFU (Max-Min)) was determined by FLIPR automatic calculation. An activity rate was calculated where RFU (Max-Min) upon addition of a compound at a maximum concentration was defined 100% and RFU (Max-Min) upon addition of DMSO as a substitute for the compound at the same concentration was defined 0%. […]

[5] = non-fasting rat, 10 mg/kg oral, FIG. 3

human CaSR, sequence (P41180 20-1078): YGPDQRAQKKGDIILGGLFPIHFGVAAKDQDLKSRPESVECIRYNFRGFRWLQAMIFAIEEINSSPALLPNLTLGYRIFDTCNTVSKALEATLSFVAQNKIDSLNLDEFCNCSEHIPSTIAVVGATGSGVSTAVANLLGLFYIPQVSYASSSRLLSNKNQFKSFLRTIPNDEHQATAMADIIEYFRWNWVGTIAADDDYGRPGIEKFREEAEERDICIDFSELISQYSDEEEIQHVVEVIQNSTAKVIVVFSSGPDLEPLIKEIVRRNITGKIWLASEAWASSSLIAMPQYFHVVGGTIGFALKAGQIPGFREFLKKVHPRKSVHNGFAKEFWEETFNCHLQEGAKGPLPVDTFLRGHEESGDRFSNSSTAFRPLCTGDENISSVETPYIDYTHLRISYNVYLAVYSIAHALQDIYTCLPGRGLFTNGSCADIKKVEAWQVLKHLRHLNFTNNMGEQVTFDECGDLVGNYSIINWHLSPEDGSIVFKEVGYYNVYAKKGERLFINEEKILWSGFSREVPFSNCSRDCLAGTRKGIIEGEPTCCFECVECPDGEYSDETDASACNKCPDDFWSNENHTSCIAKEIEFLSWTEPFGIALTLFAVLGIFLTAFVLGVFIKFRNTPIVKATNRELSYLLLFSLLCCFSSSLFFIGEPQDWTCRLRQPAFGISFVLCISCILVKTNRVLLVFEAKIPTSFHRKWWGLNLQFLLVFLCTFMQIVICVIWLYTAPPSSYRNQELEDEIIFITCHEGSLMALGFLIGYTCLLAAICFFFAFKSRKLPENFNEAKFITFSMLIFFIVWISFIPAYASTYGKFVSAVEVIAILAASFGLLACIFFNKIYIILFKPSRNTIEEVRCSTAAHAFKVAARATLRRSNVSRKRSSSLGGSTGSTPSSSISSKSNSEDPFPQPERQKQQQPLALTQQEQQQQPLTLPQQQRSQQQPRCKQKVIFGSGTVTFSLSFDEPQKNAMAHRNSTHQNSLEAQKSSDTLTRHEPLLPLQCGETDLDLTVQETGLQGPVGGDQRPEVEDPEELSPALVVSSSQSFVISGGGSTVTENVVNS

Compound | EC50 [4] [µM] | injury area of small intestine [2, 5] | water absorption (water regulating effect) [3] | other results
N[C@@H](CNC(=O)Nc1cc(Cl)cc(S(=O)(=O)O)c1O)C(=O)O [Example 6, (2S)-2-amino-3-{[(5-chloro-2-hydroxy-3-sulfophenyl)carbamoyl]amino}propanoic acid] | – | significantly improved the injury area | promoted water absorption in a dose-depending manner | decreasing serum iPTH ([1]; FIG. 1): almost the same effect as cinacalcet; decreasing serum Ca ([1]; FIG. 2): almost the same effect as cinacalcet
Cc1c(Cl)cc(S(=O)(=O)O)cc1NC(=S)NC[C@H](N)C(=O)O [Example 47, (2S)-2-amino-3-{[(3-chloro-2-methyl-5-sulfophenyl)carbamothioyl]amino}propanoic acid] | – | – | promoted water absorption in a dose-depending manner | –
Cc1c(Cl)cc(NC(=S)NC[C@H](N)C(=O)O)cc1S(=O)(=O)O [Example 48, (2S)-2-amino-3-{[(3-chloro-4-methyl-5-sulfophenyl)carbamothioyl]amino}propanoic acid] | – | – | promoted water absorption in a dose-depending manner | injury area of small intestine ([2]; non-fasting rat, 3, 10 or 30 mg/kg oral, FIG. 4): showed a tendency to improve the injury area

Now from value to molecule, other results behind:

EC50 [4] [µM] | Compound | injury area of small intestine [2, 5] | water absorption (water regulating effect) [3] | other results
0.003 | Cc1c(Cl)cc(S(=O)(=O)O)cc1NC(=O)NC[C@H](N)C(=O)O [Example 14, (2S)-2-amino-3-{[(3-chloro-2-methyl-5-sulfophenyl)carbamoyl]amino}propanoic acid] | showed a tendency to improve the injury area | promoted water absorption in a dose-depending manner | –
3.1 | N[C@@H](CCC(=O)Nc1cc(Cl)cc(S(=O)(=O)O)c1O)C(=O)N1CCOCC1 [Example 58, 3-[(4S)-4-amino-5-(morpholine-4-yl)-5-oxopentanamide]-5-chloro-2-hydroxybenzene-1-sulfonic acid] | – | – | –
3.4 | N[C@@H](CCC(=O)Nc1cc(Cl)cc(S(=O)(=O)O)c1O)C(=O)NC1CCCCCC1 [Example 60, 3-[(4S)4-amino-4-(cycloheptylcarbamoyl)butanamide]-5-chloro-2-hydroxybenzene-1-sulfonic acid] | – | – | –
